Usually EC50 stands for the midpoint of the concentration-response curve.

The subject of this test is C. parvum strain UGA1. Kind of test: C. parvum growth inhibition assay (Nluc luminescence in HCT-8 cells). Type of test: cell-based, Cryptosporidium parvum. The settings on record: Cryptosporidium parvum; for inhibition at 1 µM / inhibition at 10 µM: HCT-8; for inhibition at 1 µM: read-out: % inh @ 1 uM C. parvum; for inhibition at 10 µM: read-out: % inh @ 10 uM C. parvum; for EC50: HCT-8, 48 h, C. parvum growth inhibition in HCT-8 cells, 48 hours, 6 concentrations 10-0.04 μM.

The mark [1] stands for this setting: single point inhibition at 1 uM.
Setting [2] is: single point inhibition at 10 uM.
Setting [3] is: single point inhibition @ 10 uM.

Read-outs that look alike come from different tables or passages of the source. Some results are limits rather than exact numbers.

For `Cc1cc(-c2cc3cnc(NC(=O)N4CCCC4)cc3[nH]2)ccn1` [Example 261, N-(2-(2-methylpyridin-4-yl)-1H-pyrrolo[3,2-c]pyridin-6-yl)pyrrolidine-1-carboxamide], the inhibition at 1 µM under setting [1] was 0 to 33%. Moreover, the inhibition at 10 µM under setting [2] is 0 to 33%.

The compound `O=C(Nc1cc2[nH]c(-c3nc(C(F)(F)F)cs3)cc2cn1)C1CC1` [Example 104, N-(2-(4-(trifluoromethyl)thiazol-2-yl)-1H-pyrrolo[3,2-c]pyridin-6-yl)cyclopropanecarboxamide] showed an EC50 greater than 1 µM.

`O=C(CC1CCOCC1)Nc1cc2[nH]c(-c3ccncc3)cc2cn1` [Example 143, N-(2-(pyridin-4-yl)-1H-pyrrolo[3,2-c]pyridin-6-yl)-2-(tetrahydro-2H-pyran-4-yl)acetamide]: the inhibition at 1 µM (single point inhibition @ 1 uM) lay in the range of 0 to 33%. Further, the inhibition at 10 µM under setting [3] was 67 to 100%.

Consider `Cn1cc(C(=O)Nc2cc3[nH]c(-c4cccnc4)cc3cn2)cn1` [Example 332, 1-methyl-N-(2-(pyridin-3-yl)-1H-pyrrolo[3,2-c]pyridin-6-yl)-1H-pyrazole-4-carboxamide], for which the inhibition at 1 µM under setting [1] lay within 0 to 33%. The inhibition at 10 µM under setting [2] is 0 to 33%.

Compound `Cc1cccc(-c2cc3cnc(NC(=O)C4CC4)cc3n2C)n1` [Example 69, N-(1-methyl-2-(6-methylpyridin-2-yl)-1H-pyrrolo[3,2-c]pyridin-6-yl)cyclopropanecarboxamide] registered an EC50 greater than 1 µM.

As for `Cn1cc(C(=O)Nc2cc3c(cn2)cc(-c2ccnc(NCC(F)F)n2)n3C)cn1` [Example 144, N-(2-(2-(2,2-difluroethylamino)pyrimidin-4-yl)-1-methyl-1H-pyrrolo[3,2-c]pyridin-6-yl)-1-methyl-1H-pyrazole-4-carboxmaide], the inhibition at 1 µM (single point inhibition @ 1 uM) fell in the range of 0 to 33%. The inhibition at 10 µM under setting [3] was in the range of 67 to 100%.

Turning to `COc1nccc(-c2cc3cnc(NC(=O)c4ccc(N5CCOCC5)cc4)cc3[nH]2)n1` [Example 320, N-(2-(2-methoxypyrimidin-4-yl)-1H-pyrrolo[3,2-c]pyridin-6-yl)-4-morpholinobenzamide], the inhibition at 1 µM under setting [1] was 0 to 33%. Moreover, the inhibition at 10 µM under setting [2] fell in the range of 0 to 33%.

Consider `Cn1cc(C(=O)Nc2cc3[nH]c(-c4ccnc(OCC(C)(C)C)n4)cc3cn2)cn1` [Example 319, 1-methyl-N-(2-(2-(neopentyloxy)pyrimidin-4-yl)-1H-pyrrolo[3,2-c]pyridin-6-yl)-1H-pyrazole-4-carboxamide], for which, under setting [1], the inhibition at 1 µM was in the range of 0 to 33%. For the same compound, the inhibition at 10 µM under setting [2] was 0 to 33%.

With `COC(=O)Nc1cc2[nH]c(-c3ccnc(C)c3)cc2cn1` [Example 174, methyl 2-(2-methylpyridin-4-yl)-1H-pyrrolo[3,2-c]pyridin-6-ylcarbamate], the inhibition at 1 µM (single point inhibition @ 1 uM) was in the range of 0 to 33%. Further, under setting [3], the inhibition at 10 µM lay within 67 to 100%.

With `CSc1ccc(Nc2cc3c(cn2)cc(-c2cnn(C)c2)n3C)cc1` [Example 193, 1-methyl-2-(1-methyl-1H-pyrazol-4-yl)-N-(4-(methylthio)phenyl)-1H-pyrrolo[3,2-c]pyridin-6-amine], the inhibition at 1 µM (single point inhibition @ 1 uM) lay within 0 to 33%. Further, the inhibition at 10 µM under setting [3] lay in the range of 67 to 100%.

In turn, `FC(F)(F)CCc1nccc(-c2cc3cnc(NC4CCOCC4)cc3[nH]2)n1` [Example 385, N-(tetrahydro-2H-pyran-4-yl)-2-(2-(3,3,3-trifluoropropyl)pyrimidin-4-yl)-1H-pyrrolo[3,2-c]pyridin-6-amine] returned an EC50 greater than 1 µM.

For `COc1nccc(-c2cc3cnc(NC(=O)C4C5CCCC54)cc3[nH]2)n1` (stereo not drawn) [Example 176, N-(2-(2-methoxypyrimidin-4-yl)-1H-pyrrolo[3,2-c]pyridin-6-yl)bicyclo[3.1.0]hexane-6-carboxamide], where the note is “single point inhibition @ 1 uM”, the inhibition at 1 µM was in the range of 0 to 33%. Further, the inhibition at 10 µM under setting [3] lay within 67 to 100%.

For `Cn1cc(C(=O)Nc2cc3[nH]c(-c4cc(C(F)(F)F)ncn4)cc3cn2)cn1` [Example 254, 1-methyl-N-(2-(6-(trifluoromethyl)pyrimidin-4-yl)-1H-pyrrolo[3,2-c]pyridin-6-yl)-1H-pyrazole-4-carboxamide], the inhibition at 1 µM under setting [1] lay in the range of 0 to 33%. Under setting [2], the inhibition at 10 µM was 0 to 33%.

Regarding `COc1nccc(-c2cc3cnc(NC(=O)c4cc(C)n(C)n4)cc3[nH]2)n1` [Example 292, N-(2-(2-methoxypyrimidin-4-yl)-1H-pyrrolo[3,2-c]pyridin-6-yl)-1,5-dimethyl-1H-pyrazole-3-carboxamide], the inhibition at 1 µM under setting [1] lay in the range of 0 to 33%. In addition, the inhibition at 10 µM under setting [2] was in the range of 0 to 33%.

For the compound `COCc1cc2cnc(NC(=O)c3cnn(C)c3)cc2[nH]1` [Example 260, N-(2-(methoxymethyl)-1H-pyrrolo[3,2-c]pyridin-6-yl)-1-methyl-1H-pyrazole-4-carboxamide], the inhibition at 1 µM under setting [1] lay within 0 to 33%. Moreover, under setting [2], the inhibition at 10 µM was 0 to 33%.

On to `Cn1cc(C(=O)Nc2cc3[nH]c(-c4cnc(C#N)cn4)cc3cn2)cn1` [Example 303, N-(2-(5-cyanopyrazin-2-yl)-1H-pyrrolo[3,2-c]pyridin-6-yl)-1-methyl-1H-pyrazole-4-carboxamide], for which the inhibition at 1 µM under setting [1] was 0 to 33%. The inhibition at 10 µM under setting [2] lay within 0 to 33%.

In the case of `O=C(Nc1cc2[nH]c(-c3ccc(F)nc3)cc2cn1)C1CC1` [Example 248, N-(2-(6-fluoropyridin-3-yl)-1H-pyrrolo[3,2-c]pyridin-6-yl)cyclopropanecarboxamide], the inhibition at 1 µM under setting [1] lay within 0 to 33%. The inhibition at 10 µM under setting [2] fell in the range of 0 to 33%.

In the case of `CC(=O)Nc1cc2[nH]c(-c3cccnc3)cc2cn1` [Example 198, N-(2-(pyridin-3-yl)-1H-pyrrolo[3,2-c]pyridin-6-yl)acetamide], the inhibition at 1 µM under setting [1] fell in the range of 0 to 33%. Further, the inhibition at 10 µM under setting [2] was in the range of 67 to 100%.

`CN(CC(F)(F)F)c1nccc(-c2cc3cnc(NC4CCOCC4)cc3[nH]2)n1` [Example 370, 2-(2-(methyl(2,2,2-trifluoroethyl)amino)pyrimidin-4-yl)-N-(tetrahydro-2H-pyran-4-yl)-1H-pyrrolo[3,2-c]pyridin-6-amine] gave an EC50 of 0.5 to 1 µM.

Regarding `O[C@H]1CC[C@@H](Nc2cc3[nH]c(-c4cccnc4)cc3cn2)CC1` [Example 251, (1s,4s)-4-(2-(pyridin-3-yl)-1H-pyrrolo[3,2-c]pyridin-6-ylamino)cyclohexanol], the inhibition at 1 µM under setting [1] fell in the range of 0 to 33%. Moreover, the inhibition at 10 µM under setting [2] fell in the range of 0 to 33%.

Turning to `N#Cc1cc(-c2cc3cnc(Nc4cccc(-c5nnc[nH]5)c4)cc3[nH]2)ccn1` [Example 79, 4-(6-(3-(4H-1,2,4-triazol-3-yl)phenylamino)-1H-pyrrolo[3,2-c]pyridin-2-yl)picolinonitrile], the EC50 is greater than 1 µM. Besides, the inhibition at 1 µM (single point inhibition @ 1 uM) lay in the range of 33 to 66%. Under setting [3], the inhibition at 10 µM fell in the range of 67 to 100%.

As to `COc1nccc(-c2cc3cnc(NC(=O)c4cnn(C(C)C)c4)cc3n2C)n1` [Example 309, 1-isopropyl-N-(2-(2-methoxypyrimidin-4-yl)-1-methyl-1H-pyrrolo[3,2-c]pyridin-6-yl)-1H-pyrazole-4-carboxamide], under setting [1], the inhibition at 1 µM lay within 0 to 33%. Besides, the inhibition at 10 µM under setting [2] is 0 to 33%.

In turn, `CC(C)Nc1cc2c(cn1)cc(-c1ccnc(NCC(F)(F)F)n1)n2C` [Example 383, N-isopropyl-1-methyl-2-(2-(2,2,2-trifluoroethylamino)pyrimidin-4-yl)-1H-pyrrolo[3,2-c]pyridin-6-amine] showed an EC50 greater than 1 µM.
